pKd: −log10 of the molar value.

The values below come from article PMC4147340, “Mode and specificity of binding of the small molecule GANT61 to GLI determines inhibition of GLI-DNA binding” (Oncotarget, 2014).

In one data set the target is T1, GLI1 (Homo sapiens, UniProt P08151).
T1 construct: Full length GLI1 (OriGene)
T1 sequence (P08151 1-1106): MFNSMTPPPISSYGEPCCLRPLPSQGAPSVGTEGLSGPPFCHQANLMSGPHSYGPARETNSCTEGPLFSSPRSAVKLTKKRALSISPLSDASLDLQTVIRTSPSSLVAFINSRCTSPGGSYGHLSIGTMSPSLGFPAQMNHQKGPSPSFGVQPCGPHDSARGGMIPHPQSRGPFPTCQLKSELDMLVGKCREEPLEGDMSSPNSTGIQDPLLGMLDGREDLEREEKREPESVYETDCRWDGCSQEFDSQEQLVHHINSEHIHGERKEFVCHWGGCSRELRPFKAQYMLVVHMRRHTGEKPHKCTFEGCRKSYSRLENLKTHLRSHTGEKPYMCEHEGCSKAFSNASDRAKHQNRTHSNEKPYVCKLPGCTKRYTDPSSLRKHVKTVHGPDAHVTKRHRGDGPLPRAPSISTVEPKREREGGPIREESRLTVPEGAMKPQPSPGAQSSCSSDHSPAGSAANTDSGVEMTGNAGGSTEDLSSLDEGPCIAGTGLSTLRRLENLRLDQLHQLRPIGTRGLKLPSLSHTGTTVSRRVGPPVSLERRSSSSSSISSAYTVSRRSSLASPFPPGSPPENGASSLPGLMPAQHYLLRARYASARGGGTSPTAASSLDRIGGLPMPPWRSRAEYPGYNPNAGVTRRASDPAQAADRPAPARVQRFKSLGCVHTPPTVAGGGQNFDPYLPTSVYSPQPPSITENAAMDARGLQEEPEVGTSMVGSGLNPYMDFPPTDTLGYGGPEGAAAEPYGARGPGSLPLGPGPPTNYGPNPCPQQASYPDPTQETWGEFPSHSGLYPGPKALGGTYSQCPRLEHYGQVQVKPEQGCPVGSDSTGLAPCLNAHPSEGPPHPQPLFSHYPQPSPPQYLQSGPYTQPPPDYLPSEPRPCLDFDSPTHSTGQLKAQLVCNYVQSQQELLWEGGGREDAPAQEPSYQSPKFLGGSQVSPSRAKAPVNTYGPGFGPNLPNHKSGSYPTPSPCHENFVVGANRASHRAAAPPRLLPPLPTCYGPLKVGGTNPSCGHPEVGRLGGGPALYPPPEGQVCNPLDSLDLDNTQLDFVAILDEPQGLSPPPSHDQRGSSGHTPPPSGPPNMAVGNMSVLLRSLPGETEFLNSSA
The data set can be described thus: SPR (Biacore […]), GLI1 immobilized on CM5 chip, GANT61 […] as analyte. The format is binding. In general terms: In SPR one partner is held on a chip, and binding of the other changes the refractive index at the surface.

The target of another data set is T2, GLI1 (ΔGLI-DM) (Homo sapiens, UniProt P08151, E250A/E298A).
T2 sequence (P08151 234-388 E250A/E298A limits assumed): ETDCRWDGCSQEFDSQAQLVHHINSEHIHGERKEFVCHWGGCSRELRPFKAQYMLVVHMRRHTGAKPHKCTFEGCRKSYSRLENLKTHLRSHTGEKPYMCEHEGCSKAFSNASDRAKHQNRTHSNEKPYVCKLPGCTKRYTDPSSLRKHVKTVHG
The data set can be described thus: SPR, ΔGLI-DM immobilized on Ni-NTA chip, GANT61 […] as analyte. The class given is binding.

The subject of data set [1] is GLI1 (full length, GLI1-WT). Kind of data set: SPR. To be noted: Biacore 3000, HBS-P buffer, 20 ul/min, 3 min association, 5 min dissociation; pH, salt and temperature not stated.
Data set [2] has as its system GLI1 (full length, GLI1-WT). The data set can be described thus: SPR inhibition. The note with it: Biacore 3000, HBS-P buffer, 20 ul/min, 3 min association, 5 min dissociation; pH, salt and temperature not stated.

A word on the pKd: it is −log10 of the Kd, conventionally taken in molar units. Regarding `CN(C)c1ccccc1CN1CCCN(Cc2ccccc2N(C)C)C1c1ccncc1` [GANT61], the pKd at GLI1 is 5.12; at GLI1 (ΔGLI-DM), 4.58.
As to “biotinylated GLI1 DNA-binding sequence (21-mer)”, the negative logarithm of the Kd (pKd) in data set [1] was 5.26. In data set [2], the K half was 3.2 µM.
